Measurements as given in publication PMC11879280, “Antimicrobial activity of peptoids against Metallo-β-lactamase-producing Klebsiella pneumoniae, Acinetobacter baumannii, Pseudomonas aeruginosa, and other WHO priority pathogens, including Candida auris” (Journal of Applied Microbiology, 2025).
≈ marks a conversion by molar mass, not a printed value. Where two headings read alike, the source gives them in different places.

Key:
C. auris CBS10913 [1] = settings: CBS 10 913; RPMI 1640 with MOPS, 5 × 10^3 CFU ml^−1; ≥90% reduction (≥50% for fluconazole)
C. auris CBS 10913 [2] = test: microbe, parasite or virus in culture; type: cell-based, Candida auris; settings: C. auris CBS 10913
Experimental: Amphotericin B was tested in parallel as a positive control (Ramesh et al. [2023]).

C. auris CBS12373 [3] = test: Broth microdilution MIC; type: cell-based, Candida auris; settings: for MIC against C. auris / MIC: CBS 12 373; for MIC against C. auris: RPMI 1640 with MOPS, 5 × 10^3 CFU ml^−1, ≥90% reduction (≥50% for fluconazole); for MIC: value in brackets, read-out: MIC against C. auris
C. auris CBS10913 [4] = test: microbe, parasite or virus in culture; settings: Candidozyma auris, read-out: MIC against C. auris
C. auris CBS 10913 [5] = test: Sorbitol protection assay; type: cell-based, Candida auris; settings: C. auris CBS 10913; sorbitol 0.8 mol l^−1 in RPMI, till 7 days
Excerpt: Caspofungin served as a positive control for the assay (Leite et al. [2014]).

E. coli 0010 = settings: E. coli 0010; CAMHB, 37°C, 16–20 h
Experimental: (§1) Briefly, bacteria were suspended in cation-adjusted Mueller–Hinton broth (CAMHB; Oxoid, UK) for antibiotics, or MHB (Oxoid, UK) for peptidomimetics to obtain 5 × 10^5 colony forming unit (CFU) ml^−1. […] Positive controls contained only microbes, and blanks contained only media. Microbial suspensions (100 µl) were added to wells, plates wrapped, and incubated at 37°C, 120 rpm for 16–20 h. After incubation, suspensions were removed, log10 diluted, and plated on Trypticase Soya Agar with phosphatidylcholine and Tween 80 to determine minimum bactericidal or fungicidal concentration (MBC or MFC). […] Geometric mean MIC of the peptoids were calculated to evaluate the broad overview of antimicrobial activity across the pathogens.

E. coli 0015 = settings: E. coli 0015; CAMHB, 37°C, 16–20 h
Experimental: as §1

E. coli 0011 = settings: E. coli 0011; CAMHB, 37°C, 16–20 h
Experimental: as §1

K. pneumoniae JIE2709 = settings: K. pneumoniae JIE2709; CAMHB, 37°C, 16–20 h
Experimental: as §1

[6] = tested on: Enteroc. faecalis NCTC 13 379; settings: Enteroc. faecalis NCTC 13 379; CAMHB, 37°C, 16–20 h
Experimental: as §1

En. cloacae 001 = settings: En. cloacae 001; CAMHB, 37°C, 16–20 h
Experimental: as §1

K. pneumoniae JIE2713 = settings: K. pneumoniae JIE2713; CAMHB, 37°C, 16–20 h
Experimental: as §1

S. aureus 117 = settings: S. aureus 117; CAMHB, 37°C, 16–20 h
Experimental: as §1

S. aureus 105 = settings: S. aureus 105; CAMHB, 37°C, 16–20 h
Experimental: as §1

S. aureus 04 = settings: S. aureus 04; CAMHB, 37°C, 16–20 h
Experimental: as §1

K. pneumoniae JIE4212 = settings: K. pneumoniae JIE4212; CAMHB, 37°C, 16–20 h
Experimental: as §1

S. aureus 38 = settings: S. aureus 38; CAMHB, 37°C, 16–20 h
Experimental: as §1

E. coli 005 = settings: E. coli 005; CAMHB, 37°C, 16–20 h
Experimental: as §1

En. cloacae 003 = settings: En. cloacae 003; CAMHB, 37°C, 16–20 h
Experimental: as §1

En. cloacae 005 = settings: En. cloacae 005; CAMHB, 37°C, 16–20 h
Experimental: as §1

C. auris CBS12373 [7] = test: Checkerboard microdilution synergy test; type: cell-based, Candida auris
Experimental: (§2) The checkerboard microdilution test was performed to determine the fractional inhibitory concentration (FIC) of selected antimicrobials and assess whether the combination had synergistic, antagonistic, or indifferent effects (Anon [2016]) against strains of K. pneumoniae or C. auris. […] Additionally, a strain susceptible to ciprofloxacin was tested to observe the outcome of its combination with TM8 as a representative case from susceptible isolates. […] Then, 10 µl of bacteria (5 × 10^6 CFU ml^−1) or C. auris (2.5 × 10^4 CFU ml^−1) were added to each well, except for the sterility control well. […] The sterility control wells contained only MHB (or RPMI in case of C. auris), and the growth control contained 110 µl of microbial inoculum with no antimicrobials. Subsequently, the plates were incubated for 18- 24 hours at 36 ± 1 °C.
(§3) The FIC for each combination interaction was calculated as follows:
(§4) Then, the summation of FIC (ƩFIC) was calculated for each antimicrobial combination as follows: ƩFIC = FICA + FICB. The results were interpretated as follows: Synergy if ƩFIC ≤ 0.5; Additive if 0.5<ƩFIC ≤ 1; Indifference if […] ≤ 4; and Antagonism if ƩFIC > 4 (Odds [2003]). All antimicrobial synergy experiments were repeated in at least two independent runs.

C. auris CBS10913 [8] = test: Checkerboard microdilution synergy test; type: cell-based, Candida auris
Experimental: as §2, §3, §4

[9] = tested on: C. auris CBS12373 biofilm; test: Anti-adherence (biofilm prevention), MTT reduction assay; type: cell-based, Candida auris
Experimental: Finally, 3-(4,5-Dimethylthiazol 2-yl)-2,5-diphenyltetrazolium bromide (MTT) reduction assay was performed to observe the metabolic activities of C. auris.

[10] = tested on: C. auris CBS12373 biofilm; type: cell-based, Candida auris; settings: for Mature biofilm inhibition, blank corrected 570 nm, av. of readings: MTT absorbance
Experimental: To assess disruption of mature biofilms, 2 × 10^5 cells were cultured for 2 h in 96-well flat bottom microtiter plates at 37°C, washed, then incubated for 48 h in fresh media to form mature biofilm. […] For each activity test, the metabolic activities of the yeast cells in biofilms were measured by MTT reduction assay after washing the disrupted biofilm with PBS (Srivastava and Ahmad [2020]).

[11] = tested on: C. auris CBS12373 biofilm; test: Initial biofilm inhibition, MTT reduction assay; type: cell-based, Candida auris
C. auris CBS10913 [12] = test: Membrane integrity by flow cytometry (SYTO 9 / PI); type: cell-based, Candida auris; settings: TM8 at its MIC or 1% Triton X-100, 90 min; PBS control 0.2%
Experimental: Afterwards, the cells were stained with SYTO 9 (7.5 µmol l^−1) and PI (30 µmol l^−1) for an additional 15 min in the dark at room temperature. Following washing, samples were then analysed for membrane integrity on a BD FACSymphony^TM A3, with a minimum of 10 000 events recorded per sample.

[13] = Candidozyma auris, read-out: MIC of DrugB (alone, checkerboard)

C[C@@H]1[C@H](O)[C@@H](C)/C=C/C=C/C=C/C=C/C=C/C=C/C=C/[C@H](O[C@@H]2O[C@H](C)[C@@H](O)[C@H](N)[C@@H]2O)C[C@@H]2O[C@](O)(C[C@@H](O)C[C@@H](O)[C@H](O)CC[C@@H](O)C[C@@H](O)CC(=O)O[C@H]1C)C[C@H](O)[C@H]2C(=O)O [Amphotericin B, reference compound]
MIC against C. auris (C. auris CBS10913 [1]): 0.25 µg/mL (≈ 0.271 µM) | Increase in MIC with ergosterol (C. auris CBS 10913 [2]; ergosterol 200 µg ml^−1): five-fold | MIC (C. auris CBS 10913 [2]; Candidozyma auris, CBS10913, RPMI, read-out: MIC in the absence of ergosterol): 0.25 µg/mL (≈ 0.271 µM) | MIC against C. auris (C. auris CBS12373 [3]): 0.25 µg/mL (≈ 0.271 µM) | MIC (C. auris CBS12373 [3]; Candidozyma auris): 0.27 µM (≈ 0.25 µg/mL) | MIC (C. auris CBS10913 [4]): 0.27 µM (≈ 0.25 µg/mL)

CC[C@H](C)C[C@H](C)CCCCCCCCC(=O)N[C@H]1C[C@@H](O)[C@@H](NCCN)NC(=O)[C@@H]2[C@@H](O)CCN2C(=O)[C@H]([C@H](O)CCN)NC(=O)[C@H]([C@H](O)[C@@H](O)c2ccc(O)cc2)NC(=O)[C@@H]2C[C@@H](O)CN2C(=O)[C@H]([C@@H](C)O)NC1=O [Caspofungin, reference compound]
MIC in the presence of sorbitol (C. auris CBS 10913 [5]): 1 µg/mL | MIC against C. auris (C. auris CBS12373 [3]): 0.25 (228.7) µg ml^−1

O=C(N[C@H](CO)[C@H](O)c1ccc([N+](=O)[O-])cc1)C(Cl)Cl [Chl, chloramphenicol, reference compound]
MIC of antibiotics (E. coli 0010): 8 µg/mL | MIC of antibiotics (E. coli 0015): 2 µg/mL | MIC of antibiotics (E. coli 0011): 1 µg/mL | MIC of antibiotics (K. pneumoniae JIE2709): >32 µg/mL | MIC of antibiotics [6]: 64 µg/mL | MIC of antibiotics (En. cloacae 001): 32 µg/mL | MIC of antibiotics (K. pneumoniae JIE2713): 32 µg/mL | MIC of antibiotics (S. aureus 117): 4 µg/mL | MIC of antibiotics (S. aureus 105): 32 µg/mL | MIC of antibiotics (S. aureus 04): 2 µg/mL | MIC of antibiotics (K. pneumoniae JIE4212): 32 µg/mL | MIC of antibiotics (S. aureus 38): 4 µg/mL | MIC of antibiotics (E. coli 005): 8 µg/mL | MIC of antibiotics (En. cloacae 003): 32 µg/mL | MIC of antibiotics (En. cloacae 005): 32 µg/mL

OC(Cn1cncn1)(Cn1cncn1)c1ccc(F)cc1F [Fluconazole, reference compound]
MIC against C. auris (C. auris CBS10913 [1]): 1 µg/mL (≈ 3.27 µM) | MIC (C. auris CBS12373 [7]; [13]): 128 µg/mL | FICDrugB (C. auris CBS12373 [7]; in combination with TM8): 0.0625 | MF of antibiotic (modulation factor) (C. auris CBS12373 [7]; in combination with TM8 (0.5× MIC)): 16 | MIC (C. auris CBS10913 [8]; [13]): 1 µg/mL | FICDrugB (C. auris CBS10913 [8]; in combination with TM8): 0.0625 | MF of antibiotic (modulation factor) (C. auris CBS10913 [8]; in combination with TM8): 16 | Biofilm tolerance factor-prevention (BPC/MIC) [9]: 8 | Anti-adherence (BPC) ([9]; 2 h adhesion with agent, 48 h growth, ≥90% reduction): 4096 µg/mL | Mature biofilm MBEC ([10]; C. auris CBS12373, 48 h biofilm, then 24 h with agent, MTT, ≥90% reduction): 2048 µg/mL | Biofilm tolerance factor-eradication (MBEC/MIC) ([10]; C. auris CBS12373, MTT): 4 | Mature biofilm inhibition, blank corrected 570 nm, av. of readings ([10]; agent at 4 (growth control 1.918)): 2.95 | Mature biofilm inhibition, blank corrected 570 nm, av. of readings ([10]; agent at 8 (growth control 1.918)): 2.348 | Mature biofilm inhibition, blank corrected 570 nm, av. of readings ([10]; agent at 16 (growth control 1.918)): 2.232 | Mature biofilm inhibition, blank corrected 570 nm, av. of readings ([10]; agent at 32 (growth control 1.918)): 2.12 | Mature biofilm inhibition, blank corrected 570 nm, av. of readings ([10]; agent at 64 (growth control 1.918)): 2.186 | Mature biofilm inhibition, blank corrected 570 nm, av. of readings ([10]; agent at 128 (growth control 1.918)): 0.95 | Mature biofilm inhibition, blank corrected 570 nm, av. of readings ([10]; agent at 256 (growth control 1.918)): 0.345 | Mature biofilm inhibition, blank corrected 570 nm, av. of readings ([10]; agent at 512 (growth control 1.918)): 0.145 | Mature biofilm inhibition, blank corrected 570 nm, av. of readings ([10]; agent at 1024 (growth control 1.918)): 0.104 | Mature biofilm inhibition, blank corrected 570 nm, av. of readings ([10]; agent at 2048 (growth control 1.918)): 0.008 | MIC against C. auris (C. auris CBS12373 [3]): 128 µg/mL (≈ 418 µM) | MIC90 (C. auris CBS12373 [3]; Candidozyma auris, C. auris CBS12373 suspension used in the antibiofilm study, read-out: MIC90): 512 µg/mL (≈ 1670 µM) | MIC (C. auris CBS12373 [3]; Candidozyma auris): 418 µM (≈ 128 µg/mL) | MIC (C. auris CBS10913 [4]): 3.3 µM (≈ 1.01 µg/mL) | Biofilm tolerance factor-inhibition (MBIC/MIC) [11]: 4 | Initial biofilm MBIC ([11]; 4 h adhesion, then 48 h with agent, ≥90% reduction): 2048 µg/mL

Triton X-100 [reference compound]
Dead cells (C. auris CBS10913 [12]): 27.3%

penicillin [reference compound]
MIC of antibiotics [6]: 4 µg/mL | MIC of antibiotics (S. aureus 117): 16 µg/mL | MIC of antibiotics (S. aureus 105): 32 µg/mL | MIC of antibiotics (S. aureus 04): 16 µg/mL | MIC of antibiotics (S. aureus 38): 16 µg/mL
